According to ChEMBL document CHEMBL1201862, “PubChem BioAssay data set” (2004):
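Test compounds were applied to cells in 96-well plates for 48 hours at 5 doses. Here, GI50 denotes the concentration required for 50% inhibition of growth.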 Calls of active or inactive are those of the source. Rule as the data show it: active = GI50 up to about 1.1 µM and inactive = higher.

Key:
Test in all cases: NCI-60 cell line screen, 48 h
[1] = system: 786-0
[2] = system: ACHN
[3] = system: BT-549
[4] = system: DU-145
[5] = system: HCT-15
[6] = system: HOP-62
[7] = system: Hs-578T
[8] = system: K562
[9] = system: LOX IMVI
[10] = system: MDA-MB-231
[11] = system: NCI-H23
[12] = system: OVCAR-3
[13] = system: OVCAR-4
[14] = system: RPMI-8226
[15] = system: SK-MEL-5
[16] = system: SK-OV-3
[17] = system: SNB-19
[18] = system: TK-10
[19] = system: UACC-257
[20] = system: SR

Row | Compound | GI50 [1] | GI50 [2] | GI50 [3] | GI50 [4] | GI50 [5] | GI50 [6] | GI50 [7] | GI50 [8] | GI50 [9] | GI50 [10] | GI50 [11] | GI50 [12] | GI50 [13] | GI50 [14] | GI50 [15] | GI50 [16] | GI50 [17] | GI50 [18] | GI50 [19] | GI50 [20]
1 | Cc1cccc2nc3cc(O)cc(O)c3c(O)c12 | > 10 µM (inactive) | > 10 µM (inactive) | > 10 µM (inactive) | > 10 µM (inactive) | > 10 µM | > 10 µM (inactive) | 2.86 µM (inactive) | > 10 µM (inactive) | > 10 µM (inactive) | > 10 µM (inactive) | > 10 µM (inactive) | > 10 µM (inactive) | > 10 µM (inactive) | > 10 µM (inactive) | > 10 µM (inactive) | > 10 µM (inactive) | > 10 µM (inactive) | > 10 µM (inactive) | > 10 µM (inactive) | –
2 | N#CCCCCC12C3C(=O)N(c4ccccc4)C(=O)C3ON1O[C@@H]1C(=O)N(c3ccccc3)C(=O)[C@@H]12 (some centres not stated) | > 100 µM (inactive) | > 100 µM (inactive) | > 100 µM (inactive) | > 100 µM (inactive) | > 100 µM | > 100 µM (inactive) | > 100 µM (inactive) | > 100 µM (inactive) | > 100 µM (inactive) | > 100 µM (inactive) | > 100 µM (inactive) | > 100 µM (inactive) | > 100 µM (inactive) | – | > 100 µM (inactive) | > 100 µM (inactive) | > 100 µM (inactive) | > 100 µM (inactive) | > 100 µM (inactive) | –
3 | C=C1C(=O)O[C@H]2[C@H]1CC(=O)/C(C)=C/CC[C@@]1(C)O[C@@H]21 | 0.582 µM (active) | 0.461 µM (active) | 0.423 µM (active) | 6.5 µM (inactive) | 0.515 µM | 8.36 µM (inactive) | 2.4 µM (inactive) | – | 0.354 µM (active) | 1.05 µM (active) | 1.67 µM (inactive) | 0.224 µM (active) | 2.93 µM (inactive) | – | 0.973 µM (active) | 12.9 µM (inactive) | 3.2 µM (inactive) | 1.24 µM (inactive) | – | 0.541 µM (active)
4 | COc1c(-c2nc3ccc(N4CCN(C)CC4)nc3[nH]2)cc(OC)c2[nH]c(COC(C)=O)nc12 | 22.8 µM (inactive) | 30.3 µM (inactive) | 56.9 µM (inactive) | 29 µM (inactive) | 46 µM | 25 µM (inactive) | > 100 µM (inactive) | 1.52 µM (inactive) | 25.9 µM (inactive) | 17.9 µM (inactive) | 32.2 µM (inactive) | – | 32.4 µM (inactive) | – | 16.2 µM (inactive) | 14.5 µM (inactive) | 28.1 µM (inactive) | 38.5 µM (inactive) | 24.8 µM (inactive) | 3.78 µM (inactive)
5 | Cc1cnccc1/N=N/c1ccc(N(C)C)cc1 | 42.2 µM (inactive) | 20.5 µM (inactive) | 15.9 µM (inactive) | 66.8 µM (inactive) | 15.1 µM | 56.5 µM (inactive) | 29.9 µM (inactive) | 18.6 µM (inactive) | 17.4 µM (inactive) | 16.3 µM (inactive) | 24.4 µM (inactive) | 19.6 µM (inactive) | 16.9 µM (inactive) | 18.5 µM (inactive) | 15 µM (inactive) | 16.7 µM (inactive) | 40 µM (inactive) | 17.2 µM (inactive) | 22.3 µM (inactive) | –
6 | CC1(C)Oc2ccc3c(=O)c4ccccc4oc3c2C1C(=O)O (configuration not stated) | > 100 µM (inactive) | – | > 100 µM (inactive) | > 100 µM (inactive) | – | > 100 µM (inactive) | > 100 µM (inactive) | > 100 µM (inactive) | – | > 100 µM (inactive) | > 100 µM (inactive) | > 100 µM (inactive) | > 100 µM (inactive) | – | > 100 µM (inactive) | > 100 µM (inactive) | – | > 100 µM (inactive) | > 100 µM (inactive) | > 10 µM (inactive)
7 | CC(=O)Oc1ccc2c(c1)oc1c3ccc(OC(C)=O)cc3n(C)c(=O)c21 | 1.15 µM (inactive) | 37.4 µM (inactive) | 93.1 µM (inactive) | 24 µM (inactive) | 36.5 µM | 34.9 µM (inactive) | 4.48 µM (inactive) | 30.5 µM (inactive) | – | 27 µM (inactive) | 46.3 µM (inactive) | 32.5 µM (inactive) | – | – | 4.71 µM (inactive) | 14.8 µM (inactive) | > 100 µM (inactive) | 70.8 µM (inactive) | 21.9 µM (inactive) | 33.5 µM (inactive)
8 | CC(=O)OC(/C=C/c1ccccc1)=C(OC(C)C)/C1=C(\c2ccccc2)SCCCSC1=O | > 100 µM (inactive) | > 100 µM (inactive) | 44.6 µM (inactive) | > 100 µM (inactive) | > 100 µM | > 100 µM (inactive) | > 100 µM (inactive) | > 100 µM (inactive) | > 100 µM (inactive) | > 100 µM (inactive) | > 100 µM (inactive) | > 100 µM (inactive) | 83.4 µM (inactive) | 35.6 µM (inactive) | > 100 µM (inactive) | > 100 µM (inactive) | > 100 µM (inactive) | > 100 µM (inactive) | > 100 µM (inactive) | –
